Experimental data taken from BindingDB's records for patent US20240228491 (Scinnohub Pharmaceutical, 2024).

Molecular target: S-adenosylmethionine synthase isoform type-2 (Homo sapiens, UniProt P31153)
Test: Enzymatic Activity Test
Description: The specific steps were as follows: The compounds having the test starling concentration of 1 uM or 10 uM were diluted into 10 concentration points in a 3-fold gradient. 250 nL of the solutions of the compounds to be tested with 10 different concentrations were taken and added into a 384 well plate for later use. 20 ug/mL of MAT2a enzyme solution was prepared with Assay buffer (50 mM Tris, 50 mM KCl, 10 mM MgCl2, 0.05% polyoxyethylene lauryl ether, pH 8.0). 15 uL of the MAT2a enzyme solution at 20 ug/mL was add into the wells of the compounds to be tested at different concentrations; and 15 uL of Assay buffer was added into the negative control well. An incubation was carried out for 15 minutes after shaking for mixing well. A mixed substrate solution (comprising 400 uM ATP and 600 uM L-Methionine) was prepared with Assay buffer. 10 uL of the mixed substrate solution was added to the positive control well, the compound to be tested well, and the negative control well, respectively, and the reaction began, for a reaction time of 150 min. Then, 50 uL of the reaction stop solution (BIOMOL Green Reagent Enzo lifesciences, Cargo No. BML-AK111-1000) was added to stop the reaction, followed by being centrifuged at 1000 rpm for 60 s and then being incubated for 15 min. OD620 was read and data were processed.

Chain of S-adenosylmethionine synthase isoform type-2 (P31153 whole entry, canonical isoform): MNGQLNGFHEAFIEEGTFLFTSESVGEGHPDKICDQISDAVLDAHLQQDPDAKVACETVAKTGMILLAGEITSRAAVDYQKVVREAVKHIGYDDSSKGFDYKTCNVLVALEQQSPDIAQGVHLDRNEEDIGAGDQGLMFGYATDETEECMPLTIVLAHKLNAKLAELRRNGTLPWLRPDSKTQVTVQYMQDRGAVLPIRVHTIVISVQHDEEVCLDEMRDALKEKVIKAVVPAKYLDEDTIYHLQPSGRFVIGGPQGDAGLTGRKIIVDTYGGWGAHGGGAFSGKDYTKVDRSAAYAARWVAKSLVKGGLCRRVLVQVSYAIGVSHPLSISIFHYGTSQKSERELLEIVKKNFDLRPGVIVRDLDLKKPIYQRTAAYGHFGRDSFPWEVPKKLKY

Structure (SMILES): CNc1c(-c2ccsc2)c(=O)n(-c2ccccc2)c2nc(C(F)(F)F)ccc12 [US20240228491, Example 4]
- IC50: 20.2 nM
